Source: US10130617B2, “Chemical compounds” (AstraZeneca AB, priority 2013, dated 2018)

Tested on: HCC1428 LTED cells
Experiment: HCC1428 Long Term Estrogen Deprived (HCC1428 LTED) Xenograft Efficacy Study
Type: in vivo, NSG mice
Conditions: 25 mg/kg once daily p.o., after 28 days of dosing
Method: HCC1428 Long Term Estrogen Deprived (HCC1428 LTED) Xenograft Efficacy Study
After a suitable period of cell culture, HCC1428 LTED cells (1×10^6) were implanted subcutaneously in the hind flank of female immuno-compromised NSG mice (Jackson Labs, USA) that had undergone overectomy. Tumours were measured twice weekly and changes in tumour volume and growth inhibition were determined by bilateral Vernier calliper measurement (length×width) where length was taken to be the longest diameter across the tumour and width the corresponding perpendicular. Tumour volume was calculated using the formula (length×width)×√(length×width)×(π/6). Tumours were measured once weekly after cell implantation until the average size reached 150 mm^3 at which point the mice were placed into randomised test groups, each group containing 10 mice. Treatment with compounds began the day after (day 62 in this study) and once weekly tumour measurement continued. […] Another group of animals was dosed with vehicle p.o. to act as a control.

Structure (SMILES): C[C@@H]1Cc2c([nH]c3ccccc23)[C@@H](c2c(F)cc(/C=C/C(=O)O)cc2F)N1CC(C)(C)F [Example 1, (E)-3-(3,5-Difluoro-4-((1R,3R)-2-(2-fluoro-2-methylpropyl)-3-methyl-2,3,4,9-tetrahydro-1H-pyrido[3,4-b]indol-1-yl)phenyl)acrylic acid]
- decrease in tumour size (geometric mean values, control grew by 220 mm^3): 46 mm^3
- inhibition of tumour growth (P<0.001 by unpaired t-test): 121%
